Source: patent publication US20110263594A1, “NOVEL TRIAZOLO(4,3-A)PYRIDINE DERIVATIVES, PROCESS FOR THE PREPARATION THEREOF, USE THEREOF AS MEDICAMENTS, PHARMACEUTICAL COMPOSITIONS AND NOVEL USE, IN PARTICULAR AS MET INHIBITORS” (SANOFI-AVENTIS, priority 2008, published 2011)
Structures can show the parent of a compound that is named as a salt.

How the values were obtained:
MET [1] = target: T1, MET (Homo sapiens, UniProt P08581); test: Test A: HTRF MET assay in 96-well format; format: biochemical; parameters: The His-Tev-MET (956-1390) recombinant DNA in pFastBac (Invitrogen) is transfected into insect cells; His-Tev (histidine tag with TEV cleavage site) (N, cleaved yes); made in house; host or cells: SF21 insect cells (baculovirus, pFastBac); details: MET 5 nM, 10 μM ATP, poly-(GAT)
Procedure: The His-Tev-MET (956-1390) recombinant DNA in pFastBac (Invitrogen) is transfected into insect cells and, after several viral amplification steps, the final baculovirus stock is tested for the expression of the protein of interest.
After infection for 72 h at 27° C. with the recombinant virus, SF21 cell cultures are harvested by centrifugation and the cell pellets are stored at −80° C.
The cell pellets are resuspended in the lysis buffer (buffer A [50 mM HEPES, pH 7.5, 250 mM NaCl, 10% glycerol, 1 mM TECP]; +cocktail of protease inhibitors, Roche Diagnostics, without EDTA, ref 1873580), stirred at 4° C. until the mixture is homogeneous, and then lysed mechanically using a “Dounce” type apparatus.
After centrifugation, the lysis supernatant is incubated for 2 h at 4° C. with nickel chelate resin (His-Trap 6 Fast Flow™, GE HealthCare). After washing with 20 volumes of buffer A, the suspension is packed into a column, and the proteins are eluted with a gradient of buffer B (buffer A+290 mM imidazole).
The fractions containing the protein of interest, for the purpose of electrophoretic analysis (SDS PAGE), are combined, concentrated by ultrafiltration (10 kDa cut-off) and injected onto an exclusion chromatography column (Superdex™ 200, GE HealthCare) equilibrated in buffer A.
After enzymatic cleavage of the histidine tag, the protein is reinjected onto a new IMAC nickel chelate chromatography column (His-Trap 6 Fast Flow™, GE HealthCare) equilibrated in buffer A. The fractions eluted with a gradient of buffer B and containing the protein of interest after electrophoresis (SDS PAGE) are finally combined and stored at −80° C.
For the production of autophosphorylated protein, the previous fractions are incubated for 1 h at ambient temperature after the addition of 2 mM ATP, 2 mM MgCl2 and 4 mM Na3VO4. After the reaction has been stopped with 5 mM of EDTA, the reaction mixture is injected onto a HiPrep desalifying column (GE HealthCare) pre-equilibrated in buffer A+4 mM Na3VO4, and the fractions containing the protein of interest (SDS PAGE analysis) are combined and stored at −80° C. The degree of phosphorylation is verified by mass spectrometry (LC-MS) and by peptide mapping.
MET at a final concentration of 5 nM is incubated in a final volume of 50 μl of enzymatic reaction in the presence of the test molecule (for a final concentration range of from 0.17 nM to 10 μM, 3% DMSO final concentration) in 10 mM MOPS buffer, pH 7.4, 1 mM DTT, 0.01% Tween 20. The reaction is initiated with the substrate solution to obtain final concentrations of 1 μg/ml poly-(GAT), 10 μM ATP and 5 mM MgCl2. After incubation for 10 min at ambient temperature, the reaction is stopped with a 30 μl mix so as to obtain a final solution of 50 mM Hepes, pH 7.5, 500 mM potassium fluoride, 0.1% BSA and 133 mM EDTA in the presence of 80 ng of streptavidin 61SAXLB Cis-Bio Int. and 18 ng of anti-phosphotyrosine Mab PT66-Europium Cryptate per well. After incubation for 2 hours at ambient temperature, the reading is taken at 2 wavelengths, 620 nm and 665 nm, on a reader for the TRACE/HTRF technique, and the % inhibition is calculated from the 665/620 ratios.
Target sequence in this assay (P08581 956-1390): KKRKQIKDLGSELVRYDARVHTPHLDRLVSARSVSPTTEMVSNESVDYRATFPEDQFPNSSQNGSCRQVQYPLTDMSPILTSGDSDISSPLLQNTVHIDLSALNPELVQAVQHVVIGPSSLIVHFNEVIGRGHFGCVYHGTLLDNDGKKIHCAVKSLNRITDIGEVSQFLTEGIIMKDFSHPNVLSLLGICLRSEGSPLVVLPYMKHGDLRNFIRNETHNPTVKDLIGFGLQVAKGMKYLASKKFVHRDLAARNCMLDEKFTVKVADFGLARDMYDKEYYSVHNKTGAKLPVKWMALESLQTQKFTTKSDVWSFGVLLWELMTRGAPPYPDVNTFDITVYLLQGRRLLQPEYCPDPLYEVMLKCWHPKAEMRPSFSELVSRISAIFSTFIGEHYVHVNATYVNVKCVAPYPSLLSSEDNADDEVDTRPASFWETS

[2] = test system: HCT116 cells and MKN45 cells; test: Test C: measurement of cell proliferation by 14C-thymidine pulse; format: cell-based; details: 14C-thymidine incorporation, 96 h of treatment; cell line not given
Procedure: The cells are seeded into Cytostar 96-well plates in 180 μl for 4 hours at 37° C. and 5% CO2: HCT116 cells in a proportion of 2500 cells per well in DMEM medium+10% foetal calf serum+1% L-glutamine, and MKN45 cells in a proportion of 7500 cells per well in RPMI medium+10% foetal calf serum+1% L-glutamine. After these 4 hours of incubation, the products are added in 10 μl as a […] concentrated solution according to the dilution method mentioned for the ELISA. The products are tested at 10 concentrations in duplicate from 10 000 nM to 0.3 nM with an increment of 3.
After treatment for 72 h, 10 μl of ^14C-thymidine at 10 μCi/ml are added so as to obtain 0.1 μCi per well. The ^14C-thymidine incorporation is measured on a Micro-Beta machine (Perkin-Elmer) after 24 hours of pulse and 96 h of treatment.
All the steps of the assay are automated on BIOMEK 2000 or TECAN stations.

MET [3] = target: T1, MET; test: Test B: inhibition of the autophosphorylation of MET, ELISA technique (pppY1230,1234,1235) in MKN45 cells; format: cell-based; parameters: endogenous in cells; host or cells: MKN45 cells; details: 1 h treatment, phosphoMET ELISA
Procedure: B) Test B: Inhibition of the autophosphorylation of MET; ELISA technique (pppY1230,1234,1235) a) Cell lysates: MKN45 cells are seeded into 96-well plates (cell coat BD polylysine) at 20 000 cells/well in 200 μl in RPMI medium+10% FCS+1% L-glutamine. They are left to adhere for 24 hours in an incubator.
The cells are treated the day after seeding with the products at 6 concentrations, in duplicate, for 1 h. At least 3 control wells are treated with the same final amount of DMSO.
Product dilution: Stock at 10 mM in pure DMSO—range from 10 mM to 30 μM with an increment of 3 in pure DMSO—intermediate dilutions to 1/50 in culture medium and then removal of 10 μl added directly to the cells (200 μl): final range of 10 000 to 30 nM.
At the end of the incubation, the supernatant is carefully removed and rinsing is performed with 200 μl of PBS. Next, 100 μl of lysis buffer are placed directly in the wells on ice and incubated at 4° C. for 30 minutes. Lysis buffer: 10 mM Tris HCl, pH 7.4, 100 mM NaCl, 1 mM EDTA, 1 mM EGTA, 1% Triton X-100, 10% glycerol, 0.1% SDS, 0.5% deoxycholate, 20 mM NaF, 2 mM Na3VO4, 1 mM PMSF and cocktail of antiproteases.
The 100 μl of lysates are transferred into a V-bottomed polypropylene plate and the ELISA is performed immediately, or the plate is frozen at −80° C.
70 μl of kit dilution buffer+30 μL of cell lysate, or 30 μl of lysis buffer for the blanks, are added to each well of the kit plate. Incubation is carried out for 2 h with gentle agitation at ambient temperature.
The wells are rinsed 4 times with 400 μl of kit washing buffer. Incubation is carried out with 100 μl of anti-phospho MET antibody for 1 hour at ambient temperature.
The wells are rinsed 4 times with 400 μl of kit washing buffer. Incubation is carried out with 100 μl of anti-rabbit HRP antibody for 30 minutes at ambient temperature (except for the wells of chromogen alone).
The wells are rinsed 4 times with 400 μl of kit washing buffer. 100 μL of chromogen are introduced and incubation is carried out for 30 minutes in the dark at ambient temperature.
The reaction is stopped with 100 μl of stop solution. The plate is read without delay at […], 0.1 second on a Wallac Victor plate reader.
Target sequence in this assay (P08581 25-1390): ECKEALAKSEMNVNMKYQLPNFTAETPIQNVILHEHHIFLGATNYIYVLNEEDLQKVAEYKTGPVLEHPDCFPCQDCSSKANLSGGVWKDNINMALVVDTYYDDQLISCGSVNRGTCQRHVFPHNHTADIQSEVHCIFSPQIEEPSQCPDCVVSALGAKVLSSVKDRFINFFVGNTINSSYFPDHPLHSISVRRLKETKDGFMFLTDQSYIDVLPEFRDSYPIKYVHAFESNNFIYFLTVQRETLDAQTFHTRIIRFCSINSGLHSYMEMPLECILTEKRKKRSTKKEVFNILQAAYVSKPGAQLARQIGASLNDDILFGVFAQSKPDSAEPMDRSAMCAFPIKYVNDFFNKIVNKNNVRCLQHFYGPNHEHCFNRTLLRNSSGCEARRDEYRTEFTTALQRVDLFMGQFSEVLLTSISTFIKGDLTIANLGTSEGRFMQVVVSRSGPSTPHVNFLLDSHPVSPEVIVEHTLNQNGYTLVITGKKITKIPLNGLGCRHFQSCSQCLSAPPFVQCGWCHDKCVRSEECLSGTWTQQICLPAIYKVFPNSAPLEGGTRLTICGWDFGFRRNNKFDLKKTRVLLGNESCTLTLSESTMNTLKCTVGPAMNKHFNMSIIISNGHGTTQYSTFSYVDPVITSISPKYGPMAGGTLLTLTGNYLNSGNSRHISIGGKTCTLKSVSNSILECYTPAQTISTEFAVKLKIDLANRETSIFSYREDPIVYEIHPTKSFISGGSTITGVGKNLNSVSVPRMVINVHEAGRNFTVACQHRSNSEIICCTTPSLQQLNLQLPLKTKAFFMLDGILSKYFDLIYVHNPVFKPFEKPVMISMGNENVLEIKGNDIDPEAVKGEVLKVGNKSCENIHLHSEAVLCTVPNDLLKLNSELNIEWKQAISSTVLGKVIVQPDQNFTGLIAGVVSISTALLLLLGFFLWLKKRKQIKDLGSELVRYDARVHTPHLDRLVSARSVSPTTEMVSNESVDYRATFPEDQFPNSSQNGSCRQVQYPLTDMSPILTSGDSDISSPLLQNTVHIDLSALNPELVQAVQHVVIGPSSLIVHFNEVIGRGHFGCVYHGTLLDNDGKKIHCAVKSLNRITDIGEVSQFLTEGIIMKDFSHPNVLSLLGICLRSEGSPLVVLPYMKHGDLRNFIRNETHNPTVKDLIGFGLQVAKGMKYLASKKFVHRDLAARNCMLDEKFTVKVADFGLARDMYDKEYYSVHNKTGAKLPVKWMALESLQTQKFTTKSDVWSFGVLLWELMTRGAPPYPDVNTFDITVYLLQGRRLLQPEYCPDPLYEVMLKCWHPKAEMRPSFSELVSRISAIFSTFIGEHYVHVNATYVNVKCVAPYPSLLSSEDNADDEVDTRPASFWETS

| SMILES | melting point [°C] | IC50 (MET [1]) [nM] | IC50 [2] [nM] | IC50 (MET [3]) [nM] |
| --- | --- | --- | --- | --- |
| O=C(Nc1nc2ccc(Sc3nnc4ccc(-c5cnn(C6CCNCC6)c5)cn34)cc2s1)C1CC1 (as salt: hydrochloride) [Example 16, N-(6-{[6-(1-piperidin-4-yl-1H-pyrazol-4-yl)[1,2,4]triazolo[4,3-a]pyridin-3-yl]sulphanyl}-1,3-benzothiazol-2-yl)cyclopropanecarboxamide] | > 260 |  |  |  |
| Nc1nc2ccc(Sc3nnc4ccccn34)cc2s1 [Example 1, 6-([1,2,4]triazolo[4,3-a]pyridin-3-ylsulphanyl)-1,3-benzothiazol-2-amine] | 260 to 266 | < 500 |  |  |
| O=C(Nc1nc2ccc(Sc3nnc4ccccn34)cc2s1)C1CC1 [Example 2, N-[6-([1,2,4]triazolo[4,3-a]pyridin-3-ylsulphanyl)-1,3-benzothiazol-2-yl]cyclopropanecarboxamide] | 187 to 190 | < 100 | < 1000 | > 500 |
| O=C(NCCN1CCOCC1)Nc1nc2ccc(Sc3nnc4ccccn34)cc2s1 [Example 3, 1-[2-(morpholin-4-yl)ethyl]-3-[6-([1,2,4]triazolo[4,3-a]pyridin-3-ylsulphanyl)-1,3-benzothiazol-2-yl]urea] | 204 to 207 | < 100 | < 1000 | < 100 |
| Nc1nc2ccc(Sc3nnc4ccc(I)cn34)cc2s1 [Example 6, 6-[(6-iodo[1,2,4]triazolo[4,3-a]pyridin-3-yl)sulphanyl]-1,3-benzothiazol-2-amine] |  | < 100 | < 1000 |  |
| O=C(Nc1nc2ccc(Sc3nnc4ccc(-c5ccc(F)cc5)cn34)cc2s1)C1CC1 [Example 8, N-{6-[6-(4-fluorophenyl)[1,2,4]triazolo[4,3-a]pyridin-3-ylsulphanyl]-1,3-benzothiazol-2-yl}cyclopropanecarboxamide] |  | < 100 | < 1000 | < 100 |
| Cn1cc(-c2ccc3nnc(Sc4ccc5nc(N)sc5c4)n3c2)cn1 [Example 9, 6-{[6-(1-methyl-1H-pyrazol-4-yl)[1,2,4]triazolo[4,3-a]pyridin-3-yl]sulphanyl}-1,3-benzothiazol-2-amine] |  | < 100 | < 1000 | > 500 |
| Cn1cc(-c2ccc3nnc(Sc4ccc5nc(NC(=O)C6CC6)sc5c4)n3c2)cn1 [Example 10, N-(6-{[6-(1-methyl-1H-pyrazol-4-yl)[1,2,4]triazolo[4,3-a]pyridin-3-yl]sulphanyl}-1,3-benzothiazol-2-yl)cyclopropanecarboxamide] |  | < 100 | < 1000 | < 100 |
| O=C(Nc1nc2ccc(Sc3nnc4ccc(-c5cnn(CCOC6CCCCO6)c5)cn34)cc2s1)C1CC1 (stereo not shown) [Example 14, N-(6-{[6-(1-[2-(tetrahydro-2H-pyran-2-yloxy)ethyl]-1H-pyrazol-4-yl)[1,2,4]triazolo[4,3-a]pyridin-3-yl]sulphanyl}-1,3-benzothiazol-2-yl)cyclopropanecarboxamide] |  | < 100 | < 1000 | < 100 |
| O=C(Nc1nc2ccc(Sc3nnc4ccc(-c5cnn(CCO)c5)cn34)cc2s1)C1CC1 [Example 15, N-(6-{[6-(1-(2-hydroxyethyl)-1H-pyrazol-4-yl)[1,2,4]triazolo[4,3-a]pyridin-3-yl]sulphanyl}-1,3-benzothiazol-2-yl)cyclopropanecarboxamide] |  | < 100 | < 1000 | < 100 |
| O=C(Nc1nc2ccc(Sc3nnc4ccc(-c5cnn(C6CCNCC6)c5)cn34)cc2s1)C1CC1 [Example 16, N-(6-{[6-(1-piperidin-4-yl-1H-pyrazol-4-yl)[1,2,4]triazolo[4,3-a]pyridin-3-yl]sulphanyl}-1,3-benzothiazol-2-yl)cyclopropanecarboxamide] |  | < 100 | < 1000 | < 100 |
